In patent US20120149631A1 (priority 2009, published 2012):
≈ marks a conversion by molar mass, not a printed value. Like-named read-outs stand apart in the source and are kept apart here. No end group written: not given here.

How the values were obtained:
A. actinomycetemcomitans [1] = settings: cited from earlier work
[2] = tested on: A. actinomycetemcomitans Y4
F. novicida = settings: 24 h
P. aeruginosa biofilms = settings: Overhage 2008; cited from earlier work
F. novicida biofilm = format: cell-based, F. novicida (F. tularensis novicida)
[3] = tested on: K12 E. coli (ATCC #25404)
A. actinomycetemcomitans [4] = test: microbe, parasite or virus in culture; format: cell-based
E. coli (ATCC 25922) = settings: cited from earlier work
P. aeruginosa = P. aeruginosa (ATCC 27853); cited from earlier work
[5] = read-out: EC50 uM, E. coli, 3 h incubation, CFU enumeration
[6] = Aggregatibacter actinomycetemcomitans
[7] = Aggregatibacter actinomycetemcomitans, read-out: EC50 in μM

CC[C@H](C)[C@H](NC(=O)[C@H](CCCCN)NC(=O)[C@H](CCC(=O)O)NC(=O)[C@H](CCCCN)NC(=O)[C@H](CO)NC(=O)[C@H](CCCCN)NC(=O)[C@H](CCCNC(=N)N)NC(=O)[C@H](Cc1ccccc1)NC(=O)[C@H](Cc1ccccc1)NC(=O)[C@H](CC(=O)O)NC(=O)CNC(=O)[C@H](CC(C)C)NC(=O)[C@@H](N)CC(C)C)C(=O)NCC(=O)N[C@@H](CCCCN)C(=O)N[C@@H](CCC(=O)O)C(=O)N[C@@H](Cc1ccccc1)C(=O)N[C@@H](CCCCN)C(=O)N[C@@H](CCCNC(=N)N)C(=O)N[C@H](C(=O)N[C@H](C(=O)N[C@@H](CCC(N)=O)C(=O)N[C@@H](CCCNC(=N)N)C(=O)N[C@H](C(=O)N[C@@H](CCCCN)C(=O)N[C@@H](CC(=O)O)C(=O)N[C@@H](Cc1ccccc1)C(=O)N[C@@H](CC(C)C)C(=O)N[C@@H](CCCNC(=N)N)C(=O)N[C@@H](CC(N)=O)C(=O)N[C@@H](CC(C)C)C(=O)N[C@H](C(=O)N1CCC[C@H]1C(=O)N[C@@H](CCCNC(=N)N)C(=O)N[C@H](C(=O)N[C@@H](CCC(=O)O)C(=O)N[C@@H](CO)C(=O)O)[C@@H](C)O)C(C)C)[C@@H](C)CC)C(C)C)[C@@H](C)CC [LL-37]
ED99 (A. actinomycetemcomitans [1]): 8.2 µg/mL
MBC (A. actinomycetemcomitans [1]): above 100 μg/mL
EC50 ug/mL [2]: 6.24 µg/mL (≈ 1.39 µM)
EC50 [2]: 6.224 µg/mL
EC50 (μg/mL) [2]: 6.244 µg/mL (≈ 1.39 µM)
EC50 ([2]; 24 h): 1.39 µM
MIC (F. novicida): greater than 250 μg/ml
concentration inhibiting formation of biofilms (P. aeruginosa biofilms): 0.05 µg/mL
concentration with significant inhibition of biofilm formation (F. novicida biofilm): ≤ 3.8 ng/mL
inhibition of growth (F. novicida biofilm): no inhibition of growth
EC50 ([3]; E. coli K12): 0.519 µg/mL
EC50 ([3]; E. coli, 3 h incubation, CFU enumeration): 0.514 µg/mL
EC50 [3, 5]: 0.114 µM

CC1(C)S[C@@H]2[C@H](NC(=O)[C@H](N)c3ccc(O)cc3)C(=O)N2[C@H]1C(=O)O [amoxicillin]
EC50 (A. actinomycetemcomitans [4]; [6]): 29.6 µg/mL
EC50 (A. actinomycetemcomitans [4]; [7]): 80.9 µM

CC1(C)S[C@@H]2[C@H](NC(=O)[C@H](N)c3ccccc3)C(=O)N2[C@H]1C(=O)O [ampicillin]
EC50 (A. actinomycetemcomitans [4]; [6]): 75 µg/mL
EC50 (A. actinomycetemcomitans [4]; [7]): 215 µM

CC[C@H]1OC(=O)[C@H](C)[C@@H](O[C@H]2C[C@@](C)(OC)[C@@H](O)[C@H](C)O2)[C@H](C)[C@@H](O[C@@H]2O[C@H](C)C[C@H](N(C)C)[C@H]2O)[C@](C)(O)C[C@@H](C)CN(C)[C@H](C)[C@@H](O)[C@]1(C)O [azithromycin]
EC50 (A. actinomycetemcomitans [4]; [6]): 34.4 µg/mL
EC50 (A. actinomycetemcomitans [4]; [7]): 45.9 µM

CCC[C@@H]1C[C@@H](C(=O)N[C@@H]([C@H]2O[C@H](SC)[C@H](O)[C@@H](O)[C@H]2O)[C@H](C)Cl)N(C)C1 [clindamycin]
EC50 (A. actinomycetemcomitans [4]; [6]): > 250 µg/mL
EC50 (A. actinomycetemcomitans [4]; [7]): > 542 µM

Cc1ncc([N+](=O)[O-])n1CCO [metronidazole]
EC50 (A. actinomycetemcomitans [4]; [6]): 19.5 µg/mL
EC50 (A. actinomycetemcomitans [4]; [7]): 114 µM

GGLRSLGRKILRAWKKYGPIIVPIIRIG [BMAP-28]
EC50 ([2]; 24 h): 0.215 µM

GLLSRLRDFLSDRGRRLGEKIERIGQKIKDLSEFFQS [PMAP-37]
MIC (E. coli (ATCC 25922)): 1 µM
EC50 ([2]; 24 h): 1.25 µM
MIC (P. aeruginosa): 4 µM

GLRKRLRKFRNKIKEKLKKIGQKIQGLLPKLAPRTDY [CAP-18]
EC50 ([2]; 24 h): 1.59 µM

KRAKKFFKKLK-NH2 [ATRA-1A]
EC50 [3, 5]: 0.659 µM

KRFKKFFKKPK-NH2 [ATRA-1P]
EC50 [3, 5]: 4.76 µM

RLKELITTGGQKIGEKIRRIGQRIKDFFKNLQPREEKS [K9CATH]
EC50 ([2]; 24 h): 0.111 µM

gentamicin
EC50 (μg/mL) (A. actinomycetemcomitans [4]): 1.597 µg/mL
EC50 (A. actinomycetemcomitans [4]; read-out: EC50): 3.34 µM

hBD-4: antimicrobial listed in Table 6, not further described (EFELDRICGYGTARCRKKCRSQEYRIGRCPNTYACCLRKWDESLLNRTKP; UniProt Q8WTQ1 23-72, looked up)
EC50 (μg/mL) [2]: ≥ 100 µg/mL
EC50 ([2]; read-out: EC50 in μM): > 22.9 µM
